# Measured values from PMC9297947 (Chembiochem, 2021).
# * marks the point of attachment. X1 = Nc1ncnc2c1ncn2[C@@H]1O[C@H](C(=O)NCCNC(=O)CCN2C(=O)CC(*)C2=O)[C@@H](O)[C@H]1O
# Legend:
# AurA [1] = target: T1, AurA (Homo sapiens, UniProt O14965); test: Lineweaver-Burk inhibition mechanism (IMAP TR-FRET, various ATP), AurA; type: biochemical; conditions: Lineweaver-Burk plot, various concentrations of ATP
# T1 construct: purchased Carna Bioscience
# T1 sequence (O14965 1-403): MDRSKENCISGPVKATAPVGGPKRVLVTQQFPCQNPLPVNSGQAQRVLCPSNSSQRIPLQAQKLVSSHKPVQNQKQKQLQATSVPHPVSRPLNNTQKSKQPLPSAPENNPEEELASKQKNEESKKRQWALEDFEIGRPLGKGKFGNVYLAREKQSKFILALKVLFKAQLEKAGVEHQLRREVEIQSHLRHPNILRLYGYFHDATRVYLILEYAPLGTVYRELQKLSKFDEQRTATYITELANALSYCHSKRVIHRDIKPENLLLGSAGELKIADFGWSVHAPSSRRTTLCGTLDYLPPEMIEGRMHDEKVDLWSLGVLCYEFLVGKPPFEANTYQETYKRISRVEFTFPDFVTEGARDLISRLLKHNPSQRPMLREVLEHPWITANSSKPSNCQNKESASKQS
# From the text: Inhibition Mechanism of Peptide inhibitor Bip-3 for Aurora-A
# Lineweaver-Burk plots were generated by plotting the TR-FRET ratio values, which are proportional to reaction velocity in these conditions [8,9], as a function of the velocity versus ATP concentration ratio (v/[ATP]) at different concentrations of the peptide [19,20].
# AurA [2] = target: T1, AurA; test: IMAP TR-FRET kinase inhibition assay, AurA; type: biochemical; conditions: for IC50: FAM-Kemptide 1 µM, ATP 5 µM (Table S2; Figure 3 legend prints mM), TBS reaction buffer
# Circular dichroism = type: physicochemical; conditions: CD, 20 μM peptide in TBS, 20 °C; compared with YT1
# KDR (VEGF receptor) = test: Phage ELISA, KDR; type: binding; conditions: phage clone displaying P8-2KA, 10^10 cfu; HRP anti-M13, OD490
# Description: (§1) All of the experiments were performed as described . In this study, the insert fragment encoding of helix-loop- helix (HLH) peptide P8-2KA and phage clone displaying no peptide were prepared. With regard to clone P8-2KA, the insert fragment was initially prepared by overlap extension PCR using P8-2KA 1 fwd and P8-2KA 1 rev. After purification of the fragment, restriction site SfiI and E-tag epitope were introduced by the following PCR using Sfi- YT1- CD 2 fwd and Etag- linker 2 rev, and the product was purified. The fragment was fused with the pIII gene amplified by the two primers prepcr and Sfi2fo with the template fdg3p0ss21, and a fragment encoding P8- 2KA- fused pIII was prepared as described. After digestion of the fragment by SfiI and the succeeding purification, the fragment was ligated with fdg3p0ss21-stop which was digested with the same restriction enzyme. As a negative control, we also prepared a clone displaying no HLH peptide on phage. To prepare the phage clone, only linker primer was used in the PCR together with Sfi2fo and the pIII gene amplified from the template fdg3p0ss21 as described above. […]
# (§2) […] After was hing the wells with PBST 10 times, 100 µL of HRP Anti-M13 antibody conjugated (1:4000) was added, and the OD490 values were measured after adding o-phenylene diamine ([…] OPD, SIGMA) and adding 50 µL of
# G‐CSF‐R [3] = conditions: ref [2e] El-Haggar et al., Bioorg. Med. Chem. Lett. 2010; cited from earlier work
# From the text: Mild conditions are required for modification to minimize damage to phage clones so that they remain infectious to the host Escherichia coli cells.[[8a]]
# BSA = test: Phage ELISA, BSA; type: binding; conditions: phage clone displaying P8-2KA, 10^10 cfu; HRP anti-M13, OD490
# Description: as §1, §2
# anti‐E‐tag antibody = test: Phage ELISA, anti-E-tag antibody; type: binding; conditions: phage clone displaying P8-2KA, 10^10 cfu; HRP anti-M13, OD490
# Description: as §1, §2
# G‐CSF‐R [4] = test: Phage ELISA, G-CSF-R; type: binding; conditions: phage clone displaying P8-2KA, 10^10 cfu; HRP anti-M13, OD490
# Description: as §1, §2
# [5] = tested on: AurA, AurB, AurC, PAK4, Erk2, PKACα, and Src; test: IMAP TR-FRET kinase selectivity panel; type: biochemical; conditions: 5 μM Bip-3-Adc vs AurA
# Description: Figure 3 Inhibitory activities of the selected peptide Bip‐3 and the adenosine‐tethering peptide Bip‐3‐Adc for AurA. (a) The structure of synthesized Bip‐3‐Adc, Bip‐3, and the original HLH peptide YT1. (b) The CD spectra of 20 μM Bip‐3 and YT1 measured in TBS at 20 °C. (c) The binding activity of Bip‐3 to immobilized AurA as determined by SPR experiments (TBS, 0.005 % P‐20, 25 °C). (d) Dose‐dependent inhibitory activities of Bip‐3 and Bip‐3‐Adc for AurA measured using an IMAP® TR‐FRET assay. Inhibition of AurA was determined at 100 ng/mL AurA, 1 mM 5FAM‐Kemptide, 5 mM ATP, in TBS reaction buffer. (e) Inhibitory activities of 5 μM Bip‐3‐Adc for AurA, AurB, AurC, PAK4, Erk2, PKACα, and Src, determined using the IMAP® TR‐FRET assay.
# CD spectra were recorded in TBS at overall peptide concentration of 20 μM on a J-820 spectrometer at 20°C (PTC-423L thermostat, Jasco). The peptide concentrations were determined by measuring absorbance of aromatic residues of peptide dissolved in 6 M Gdn•HCl at UV 280 nm[14].
# 9. Surface Plasmon Resonance […]
# denaturation of AurA, measurements were performed without regeneration of the sensor chip surface at each cycle, and any cycles were started after complete dissociation of analytes from the sensor chip. […] The concentration of adenosine-labeled peptide was determined by using the molar extinction coefficient of adenosine, and aromatic residues at UV 260 […]
# [6] = tested on: phage infectivity of the host TG1 E. coli cells; test: Phage infectivity after chemical modification; conditions: higher concentrations within 0.5–500 μM in PBS, room temperature, 2 h; P8-2KA phage clone
# Description: Mild conditions are required for modification to minimize damage to phage clones so that they remain infectious to the host Escherichia coli cells.[[8a]] […] Phage clones (10^11 cfu) of P8‐2KA were treated with 200 μL of serially diluted maleimide‐PEG2‐biotin (0.5–500 μM) in PBS at room temperature for 2 h (Supporting Figure S3).
# 2. Chemical Modification of HLH peptide on Phage
# All of the experiments were performed as described. 200 µL of phage (1012 cfu) was dissolved in PBS (pH 7.0), and 1 µL of 1 mM Maleimide-PEG2-biotin (EZ-Link® Maleimide-PEG2-Biotin, Thermo Scientific) was added and incubated for 2 hr at room temperature. To eliminate the residual reagents in phage solution, the treated solution was purified by ultrafiltration at 14,000 g for 20 min at 4 C by using Amicon® Ultra 0.5 mL Ultracel® 10K (Millipore). After discarding the flow-through, 200 µL of chilled PBST was added, and centrifugated as the same above. 100 µL of the chemically modified phage was added to Streptavidin High Capacity Coated Plate (SIGMA). Detection of phages was performed as described above by using Anti-M13 antibody conjugated with HRP.
# 3. The Infectivity of phages after Chemical Modification
# All of the experiments were performed as described. […] Then the E. coli cells were inoculated onto LB/Agar containing 20 µg/mL chloramphenicol over night at 37°C, and colonies were counted. […]
# Aurora kinase A (AurA) = target: T2, Aurora kinase A (AurA) (Homo sapiens, UniProt O14965); test: SPR
# T2 chain: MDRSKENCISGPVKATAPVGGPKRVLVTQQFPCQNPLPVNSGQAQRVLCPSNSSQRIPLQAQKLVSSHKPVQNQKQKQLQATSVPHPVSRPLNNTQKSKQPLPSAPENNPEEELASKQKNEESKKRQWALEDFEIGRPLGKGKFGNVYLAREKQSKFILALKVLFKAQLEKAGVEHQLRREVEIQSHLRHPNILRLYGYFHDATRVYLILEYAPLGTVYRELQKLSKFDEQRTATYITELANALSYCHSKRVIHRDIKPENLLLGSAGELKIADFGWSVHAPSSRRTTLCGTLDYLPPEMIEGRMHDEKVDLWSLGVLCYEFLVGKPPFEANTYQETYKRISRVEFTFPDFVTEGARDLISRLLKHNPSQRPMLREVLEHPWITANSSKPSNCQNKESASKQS
# [7] = 100 ng/mL AurA, 1 hr, room temperature
molecule,measurement,setting,value
H-CDGGSGGGSAELAALEAELAALEGGGGGGGKLEYLKWKLWPLKGW-NH2 [Bip‐3],mode of inhibition with respect to ATP,AurA [1],mixed inhibition
same,IC50,AurA [2]; [7],0.103 mM
same,α-helical content,Circular dichroism,high α‐helical content comparable with that of the original peptide YT1
Nc1ncnc2c1ncn2[C@@H]1O[C@H](CO)[C@@H](O)[C@H]1O [adenosine],mode of inhibition with respect to ATP,AurA [1],competitive inhibition for ATP
same,IC50,AurA [2]; [7],0.474 mM
CDGGSGGGS‐AELAALEAELAALE‐G7‐KLAMLKLKLAELKRY [P8‐2KA],binding to KDR,KDR (VEGF receptor),no binding was observed
same,Kd,G‐CSF‐R [3],0.214 µM
same,binding to BSA,BSA,no binding was observed
same,binding to anti-E-tag antibody,anti‐E‐tag antibody,bound to anti‐E‐tag antibody
same,binding to G-CSF-R,G‐CSF‐R [4],selective binding
H-C(X1)DGGSGGGSAELAALEAELAALEGGGGGGGKLEYLKWKLWPLKGW-NH2 [Bip‐3‐Adc],mode of inhibition with respect to ATP,AurA [1],uncompetitive inhibition
same,fold difference in IC50 (inhibition of AurA) vs Bip-3,AurA [2]; Bip-3-Adc vs Bip-3 (IC50 103 μM),13 fold
same,fold difference in IC50 (inhibition of AurA) vs adenosine,AurA [2]; Bip-3-Adc vs adenosine (IC50 474 μM),62 fold
same,kinase selectivity,[5],highest inhibitory activity and remarkable selectivity for AurA
O=C(CCCC[C@@H]1SC[C@@H]2NC(=O)N[C@@H]21)NCCOCCOCCNC(=O)CCN1C(=O)C=CC1=O [maleimide‐PEG2‐biotin],phage infectivity of TG1 E. coli cells,[6],small loss of phage infectivity
AELAALEAELAALE‐G7‐KLAALKAKLAALKAY [YT1],inhibitory activity for AurA,AurA [2]; [7],no inhibitory activity
CDGGSGGGSAELAALEAELAALEGGGGGGGKLEYLKWKLWPLKGW [Bip-3],Kd,Aurora kinase A (AurA),13.7 µM
